These results are taken from patent US5977133A, “Pyridone antibiotic with improved safety profile” (priority 1998, dated 1999).

Values after ≈ are worked out from the molar mass of the structure shown. “Also recorded” adds a separate entry of the source. Where a name gives a salt, the structure may show the parent alone. Read-outs that look alike come from different tables or passages of the source.

Series [1] deals with staphylococcus aureus NTCC 10649. Kind of series: In vivo efficacy, mouse infection (ED50). Conditions: for ED50: Staphylococcus aureus, NTCC10649, in Mus musculus, 168 h.
The subject of series [2] is Streptococcus pneumoniae 6303. Kind of series: In vivo efficacy, mouse infection (ED50). The settings on record: for ED50: Streptococcus pneumoniae, 6303, in Mus musculus, 168 h.
A further series has as its system H. pylori. Kind of series: In vitro MIC, agar dilution. The format is cell-based. Conditions: Helicobacter pylori; for MIC: read-out: MIC Range. A general note: Agar dilution tests growth on a series of plates holding different concentrations.
The test system of a further series is C. freundii. Kind of series: In vitro MIC, agar dilution. The series is classed as cell-based. The settings on record: Citrobacter freundii; for MIC: read-out: MIC Range.
The test system of a further series is Escherichia coli JUHL. Kind of series: In vivo efficacy, mouse infection (ED50). The settings on record: for ED50: Escherichia coli, in Mus musculus, 168 h.
For the next series, the system named is C. difficile. Kind of series: In vitro MIC, agar dilution. The settings on record: for MIC: read-out: MIC Range; for MIC50: read-out: MIC50. The format is cell-based.
Another series in a line: in vivo. Conditions: mouse, ip.
Series [3] concerns ciprofloxacin resistant staphylococcal strains. Kind of series: In vitro MIC, agar dilution (summary in text). The format is cell-based. Conditions: read-out: MIC90.
Series [4] has as its system gram positive and gram negative infections. In words: In vivo efficacy in mice (overall statement). More on the design: species or system female CF-1 outbred mice. The settings on record: for in vivo efficacy in words: gram positive and gram negative infections.
The test system of the next series is enterococci. Kind of series: In vitro MIC, agar dilution (summary in text). The format is cell-based.
The test system of the next series is streptococci. In words: In vitro MIC, agar dilution (summary in text). The format is cell-based.
A further series has as its system anaerobes. The format is cell-based, B. fragilis, C. difficile, C. perfringens. The settings on record: words.
In a further series the test system is bacteria. Kind of series: In vitro antibacterial activity (overall statement). The series is classed as cell-based. Conditions: overall statement.
In the next series the test system is enterobacteriaceae. Kind of series: microbe, parasite or virus in culture. The format is cell-based.
Another series concerns staphylococci. Kind of series: In vitro MIC, agar dilution (summary in text). The series is classed as cell-based.
The mark [5] stands for this setting: C. freundii, 20 isolates, read-out: MIC50.
The mark [6] stands for this setting: Clostridioides difficile, C. difficile, 10 isolates.
The mark [7] stands for this setting: H. pylori, 17 isolates, read-out: MIC50.
Setting [8] is: Clostridioides difficile, C. difficile, 10 isolates, read-out: MIC90.

The term ED50 denotes the dose that gives a 50% effect, or the effect in half of the subjects. As a reminder, the MIC50 is the lowest concentration that inhibits either 50% of growth or 50% of the strains tested, depending on the study. As usually defined, the MIC is the lowest concentration found to suppress growth. In general, LD50 refers to the dose expected to kill half of the subjects tested. The low end stands for greater toxicity, the high end for lower toxicity. `Cc1c(N2C[C@@H](N)C3(CC3)C2)c(F)cn2c(=O)c(C(=O)O)cc(C3CC3)c12` [Example 5, 1-cyclopropyl-8-(7(S)-amino-5-azaspiror2.41heptvl)-7-fluoro-9-methyl4-oxo-4H-quinolizine-3-carboxylic acid hydrochloride]: the ED50 in series [1] (po) was found to be 2.3 mg/kg; in series [1] (sc), 0.9 mg/kg; in [2] (po), 4.2 mg/kg; in series [2] (sc), 0.9 mg/kg; in the series on Escherichia coli JUHL (po) it was 5 mg/kg; in the series on Escherichia coli JUHL (sc), 0.6 mg/kg. Moreover, the MIC50 in the series with H. pylori is 0.03 µg/mL; with C. freundii (setting [5]) it was 0.015 µg/mL; in the series with C. difficile (setting [6]), 0.25 µg/mL. Besides, the results for the MIC90 against H. pylori, with C. freundii and against C. difficile (Clostridioides difficile) were 0.06 µg/mL, 0.12 µg/mL and 0.25 µg/mL, respectively. In addition, the minimum inhibitory concentration (MIC) is 0.015 to 0.06 µg/mL in the series on H. pylori (H. pylori, 17 isolates); 0.008 to 0.12 µg/mL in the series on C. freundii (C. freundii, 20 isolates); 0.12 to 0.25 µg/mL in the series with C. difficile (Clostridioides difficile). The body weight loss (mouse, in vivo, ip, 100 mg/kg) came out at 18%. The LD50 at 504 h in the series “in vivo” was found to be 105 mg/kg.

`N[C@@H]1[C@H]2CN(c3nc4c(cc3F)c(=O)c(C(=O)O)cn4-c3ccc(F)cc3F)C[C@@H]12` [Trovafloxacin, trovafloxacin]: the MIC90 was determined as 0.5 µg/mL (≈ 1.2 µM) in the series with H. pylori, 0.5 µg/mL (≈ 1.2 µM) against C. freundii and 2 µg/mL (≈ 4.8 µM) in the series on C. difficile (setting [8]). Moreover, the results for the MIC50 in the series with H. pylori (setting [7]) and with C. freundii (setting [5]) were 0.12 µg/mL (≈ 0.288 µM) and 0.06 µg/mL (≈ 0.144 µM), respectively. For the same molecule, the MIC is 0.06 to 1 µg/mL (≈ 0.144 to 2.4 µM) in the series with H. pylori (H. pylori, 17 isolates) and 0.003 to 1 µg/mL (≈ 0.00721 to 2.4 µM) in the series on C. freundii (C. freundii, 20 isolates).

Consider `NC1CCN(c2c(F)cc3c(=O)c(C(=O)O)cn(C4CC4)c3c2Cl)C1` (stereo not drawn) [Clinafloxacin, clinafloxacin], for which the figures for the MIC90 in the series on H. pylori, against C. freundii and against C. difficile (Clostridioides difficile) were 0.03 µg/mL (≈ 0.082 µM), 0.12 µg/mL (≈ 0.328 µM) and 0.25 µg/mL (≈ 0.683 µM), respectively. Also, the values for the MIC50 in the series on H. pylori (setting [7]), in the series with C. freundii and in the series on C. difficile (setting [6]) were 0.015 µg/mL (≈ 0.041 µM), 0.03 µg/mL (≈ 0.082 µM) and 0.25 µg/mL (≈ 0.683 µM), respectively. Further, the minimum inhibitory concentration (MIC) with H. pylori (H. pylori, 17 isolates) lay in the range of 0.008 to 0.03 µg/mL (≈ 0.0219 to 0.082 µM); in the series on C. freundii, 0.015 to 0.12 µg/mL (≈ 0.041 to 0.328 µM); in the series on C. difficile (Clostridioides difficile), 0.12 to 0.25 µg/mL (≈ 0.328 to 0.683 µM).

Turning to `C[C@@H]1CN(c2c(F)c(N)c3c(=O)c(C(=O)O)cn(C4CC4)c3c2F)C[C@H](C)N1` [Sparfloxacin, sparfloxacin], the MIC90 with H. pylori was 0.25 µg/mL (≈ 0.637 µM); with C. freundii, 0.5 µg/mL (≈ 1.27 µM); in the series on C. difficile (setting [8]), 4 µg/mL (≈ 10.2 µM). The MIC was in the range of 0.06 to 0.25 µg/mL (≈ 0.153 to 0.637 µM) with H. pylori; 0.015 to 1 µg/mL (≈ 0.0382 to 2.55 µM) with C. freundii (C. freundii, 20 isolates); 2 to 4 µg/mL (≈ 5.1 to 10.2 µM) with C. difficile (Clostridioides difficile). In addition, the MIC50 with H. pylori (setting [7]) worked out at 0.12 µg/mL (≈ 0.306 µM); with C. freundii, 0.03 µg/mL (≈ 0.0765 µM); in the series with C. difficile (setting [6]) it was 4 µg/mL (≈ 10.2 µM).

Turning to `CN[C@@H]1CN(c2c(F)cn3c(=O)c(C(=O)O)cc(C4CC4)c3c2C)CC12CC2` [Example 1, 1-cyclopropyl-8-(7(S)-N-methylamino-5-azaspiro[2.4]heptyl)-7-fluoro-9-methyl-4-oxo-4H-guinolizine-3-carboxylic acid hydrochloride], the MIC90 in series [3] is 0.5 µg/mL; against H. pylori, 0.03 µg/mL; in the series with C. freundii it was 0.25 µg/mL; with enterococci it was 0.25 to 1 µg/mL; in the series with streptococci, 0.06 µg/mL; against C. difficile (C. difficile, 10 isolates) it was 0.5 µg/mL. Besides, the MIC90 with C. difficile (Clostridioides difficile, C. difficile, read-out: MIC90) is 0.5 µg/mL; with enterobacteriaceae it was 0.015 to 0.25 µg/mL; in the series on staphylococci it was 0.03 µg/mL. The “efficacy relative to ciprofloxacin” value is on record as “superior to ciprofloxacin” in series [1] (S. aureus, words); “superior to ciprofloxacin” in series [2] (S. pneumoniae, words); “comparable” in the series with Escherichia coli JUHL (E. coli, words). In addition, the 50% effective dose (ED50) stood at 5 mg/kg in series [1] (po); 1.5 mg/kg in series [1] (sc); 20 mg/kg in series [2] (po); 12.5 mg/kg in series [2] (sc); 6.8 mg/kg with Escherichia coli JUHL (po); 1.4 mg/kg in the series on Escherichia coli JUHL (sc). In addition, the values for the MIC50 against H. pylori, against C. freundii and in the series on C. difficile (setting [6]) were 0.03 µg/mL, 0.03 µg/mL and 0.5 µg/mL, respectively. Besides, the minimal inhibitory concentration (MIC) with H. pylori (H. pylori, 17 isolates) is 0.008 to 0.03 µg/mL; with C. freundii (C. freundii, 20 isolates), 0.015 to 0.25 µg/mL; in the series with C. difficile (setting [6]), 0.5 µg/mL. For the setting “mouse, in vivo”, the “weight loss in words” value is on record as “no weight loss was observed”. Further, the “relative toxicity / safety in words” value (single intraperitoneal injection to mice, hydrochloride) was “significantly less toxic than Example 2 or Example 5; also recorded: less morbidity and mortality than equivalent doses of Example 2 and Example 5”. For the same molecule, the “in vivo efficacy in words” value is “maintaining efficacy versus S. aureus. S. pneumoniae and E. coli” in series [4] (hydrochloride); “broad spectrum efficacy against both gram positive and gram negative infections” in series [4] (listed as example 1, hydrochloride). In series [4] (oral, all infections), the “oral efficacy in words” value is on record as “Oral efficacy was also demonstrated against all infections”. For the same molecule, the “in vitro activity relative to reference drugs” value with enterococci (words) was “superior to ciprofloxacin, sparfloxacin, and trovafloxacin”; in the series with streptococci (words), “superior to ciprofloxacin, sparfloxacin, and trovafloxacin”; in the series with anaerobes, “significantly more active than ciprofloxacin, trovafloxacin, and sparfloxacin”; in the series with enterobacteriaceae it was “equivalent to ciprofloxacin and superior to trovafloxacin and sparfloxacin”; with staphylococci (words), “superior to ciprofloxacin, sparfloxacin, and trovafloxacin”. The molecule also showed an LD50 at 504 h in “in vivo” of 232 mg/kg. The “antibacterial activity in words” value in the series on bacteria is “excellent, broad-spectrum antibacterial activity”.
